For series [1], the system named is hexobarbital-treated ddY Strain male mice. Description: Barbiturate potentiation (duration of loss of righting reflex due to hexobarbital). The series is classed as in vivo, mouse (ddY Strain). The following applies: 0.5 h, read-out: Barbiturate potentiation (ratio with control groups). Here is the method: ddY Strain male mice (4 - 5 weeks old, body weight 23 - 28 g) in groups of 5 mice each were orally treated with 100 mg/kg of samples and 30 minutes after the oral administration the mice were intraperitoneally treated with 100 mg/kg of hexobarbital. Duration of loss of righting reflex due to hexobarbital was determined and barbiturate potentiation ratios with control groups were calculated. Imipramine, desipramine and diazepam were used as control drugs.

A further series has as its system ddY Strain mice. Description: Acute toxicity, mouse. The series is classed as in vivo. The following applies: p.o. The source says:
(§1) ddY Strain mice and Wistar-Imamichi strain rats were used to inspect acute toxicity and subacute toxicity (30 days; oral administration) of a compound of the formula [I].

The nature of another series: Acute toxicity, mouse. The note with it: in vivo, po. The series is classed as in vivo.
From the text: as §1

In series [2] the test system is Wistar-Imamichi strain rats. As to the kind of experiment: Subacute toxicity (30 days; oral administration), rat. The series is classed as in vivo, rat (Wistar-Imamichi strain).
From the text: as §1

A further series can be described thus: Acute toxicity, rat. The following applies: in vivo, po.
From the text: as §1

For series [3], the system named is hexobarbital-treated ddY Strain male mice. Description: Barbiturate potentiation (duration of loss of righting reflex due to hexobarbital). The series is classed as in vivo, mouse (ddY Strain). The note with it: Mus musculus, po, 0.5 h, read-out: Barbiturate potentiation (ratio with control groups).
[4] abbreviates: mouse, 100 mg/kg oral, 30 minutes before 100 mg/kg i.p. hexobarbital, loss of righting reflex duration.
Setting [5] is: 30 days oral, at a dose of 50 mg/kg.

SMILES strings stand for the structures. Structures can show the parent of a compound that is named as a salt. Where two headings read alike, the source gives them in different places.

In the case of `CN(C)CCn1nc(-c2ccccc2)c2ccccc21` [Example 1, 1-dimethylaminoethyl-3-phenylindazole hydrochloride], in series [1] (setting [4]), the response vs control in vivo at 100 mg/kg stood at 300%.
Still for that read-out and setting: the result for `CN(C)CCn1nc(-c2ccccc2)c2cc(Cl)ccc21` [Example 2, 1-dimethylaminoethyl-3-phenyl-5-chloroindazole hydrochloride] reads 150%.
On the same count and under the same terms, in the case of `Cc1ccc2c(c1)c(-c1ccccc1)nn2CCN(C)C` [Example 3, 1-dimethylaminoethyl-3-phenyl-5-methylindazole hydrochloride] it was 150%; in that of `CCN(CC)CCn1nc(-c2ccccc2)c2cc(Cl)ccc21` [Example 4, 1-diethylaminoethyl-3-phenyl-5-chloroindazole hydrochloride], 120%.
Same read-out and setting: the result for `CCN(CC)CCn1nc(-c2ccccc2)c2ccccc21` [Example 6, 1-diethylaminoethyl-3-phenylindazole hydrochloride] reads 290%; that for `CN(C)CCCn1nc(-c2ccccc2)c2ccccc21` [Example 7, 1-dimethylaminopropyl-3-phenylindazole hydrochloride], 190%.
`CN(C)CCCn1nc(-c2ccccc2)c2cc(Cl)ccc21` [Example 8, 1-dimethylaminopropyl-3-phenyl-5-chloroindazole hydrochloride]: the response vs control in vivo at 100 mg/kg in series [1] (setting [4]) came to 130%.
As to `Cc1ccc2c(c1)c(-c1ccccc1)nn2CCCN(C)C` [Example 10, 1-dimethylaminopropyl-3-phenyl-5-methylindazole], the response vs control in vivo at 100 mg/kg in series [1] (setting [4]) is 100%. Moreover, the LD50 in the series with ddY Strain mice is 660 mg/kg; in the series “Acute toxicity, mouse”, 580 mg/kg; in “Acute toxicity, rat”, 3000 to 5000 mg/kg. The “Subacute toxicity: fatality” value in series [2] (30 days oral, at a dose of 100 mg/kg) is on record as “not fatal”. The “Subacute toxicity: symptoms” value in series [2] (in vivo, po, 100 mg/kg) is on record as “no abnormal symptom”.
Regarding `c1ccc(-c2nn(CCCN3CCCCC3)c3ccccc23)cc1` [Example 11, 1-piperidinopropyl-3-phenylindazole hydrochloride], the response vs control in vivo at 100 mg/kg in series [1] (setting [4]) stood at 130%.
On the same count and under the same terms, the result for `Cc1ccc2c(c1)c(-c1ccccc1)nn2CCCN1CCCCC1` [Example 12, 1-piperidinopropyl-3-phenyl-5-methylindazole hydrochloride] reads 100%.
Same read-out and setting: the result for `Clc1ccc2c(c1)c(-c1ccccc1)nn2CCN1CCOCC1` [Example 14, 1-morpholinoethyl-3-phenyl-5-chloroindazole hydrochloride] reads 170%; that for `Cc1ccc2c(c1)c(-c1ccccc1)nn2CCCN1CCOCC1` [Example 15, 1-morpholinopropyl-3-phenyl-5-methylindazole hydrochloride], 140%; that for `Cc1ccc2c(c1)c(-c1ccccc1)nn2CCCN1CCN(C)CC1` [Example 17, 1-N-methylpiperazinopropyl-3-phenyl-5-methylindazole hydrochloride], 100%.
The same measure, in the same setting: the result for `Clc1ccc2c(c1)c(-c1ccccc1)nn2CN1CCOCC1` [Example 19, 1-morpholinomethyl-3-phenyl-5-chloroindazole] reads 120%.
As to `Cc1ccc2c(c1)c(-c1ccccc1)nn2CN1CCCC1` [Example 20, 1-pyrrolidinomethyl-3-phenyl-5-methylindazole hydrochloride], the response vs control in vivo at 100 mg/kg in series [1] (setting [4]) was determined as 160%.
Turning to `c1ccc(-c2nn(CN3CCOCC3)c3ccccc23)cc1` [Example 23, 1-morpholinomethyl-3-phenylindazole], the response vs control in vivo at 100 mg/kg in series [1] (setting [4]) came to 130%.
Still for that read-out and setting: in the case of `O=C1c2ccccc2C(=O)N1CCCn1nc(-c2ccccc2)c2cc(Cl)ccc21` [Example 25, 1-phthalimidopropyl-3-phenyl-5-chloroindazole] it was 110%; in that of `CNCCCn1nc(-c2ccccc2)c2cc(C)ccc21` [Example 29, 1-N-monomethylaminopropyl-3-phenyl-5-methylindazole hydrochloride], 170%.
The same measure, in the same setting: in the case of `Cc1ccc2c(c1)c(-c1ccccc1)nn2CCCN` [Example 34, 1-aminopropyl-3-phenyl-5-methylindazole] it was 250%.
In the case of `CNCCCN1c2ccccc2CCc2ccccc21` [desipramine, reference compound], the response vs control in vivo at 100 mg/kg in series [1] (Mus musculus, po) is 150%.
With `CN1C(=O)CN=C(c2ccccc2)c2cc(Cl)ccc21` [diazepam], the response vs control in vivo at 5 mg/kg in series [3] was found to be 230%.
Consider `CN(C)CCCN1c2ccccc2CCc2ccccc21` [imipramine], for which the response vs control in vivo at 100 mg/kg in series [1] (Mus musculus, po) amounted to 130%. Further, in series [2] (setting [5]), the “Subacute toxicity: blood urine nitrogen” value was “reduced”, the “Subacute toxicity: fatality” value was “not fatal” and the “Subacute toxicity: hemoglobin” value is recorded as “reduced”.

As usually defined, the LD50 is the dose at which mortality reaches 50%. A higher LD50 goes with lower toxicity.

(Values after US3994890A, “1-Aminoalkyl, 3-phenyl indazoles” (Chugai Seiyaku Kabushiki Kaisha, priority 1974, dated 1976).)
